Results published in article PMC2900529 (FEBS letters, 2010).

What was measured:
E. coli LysRS = target: T1, E. coli LysRS (Escherichia coli, UniProt P0A8N3); test: amino acid activation; type: biochemical; settings: analog 25 mM; ATP
T1 sequence (P0A8N3 2-505): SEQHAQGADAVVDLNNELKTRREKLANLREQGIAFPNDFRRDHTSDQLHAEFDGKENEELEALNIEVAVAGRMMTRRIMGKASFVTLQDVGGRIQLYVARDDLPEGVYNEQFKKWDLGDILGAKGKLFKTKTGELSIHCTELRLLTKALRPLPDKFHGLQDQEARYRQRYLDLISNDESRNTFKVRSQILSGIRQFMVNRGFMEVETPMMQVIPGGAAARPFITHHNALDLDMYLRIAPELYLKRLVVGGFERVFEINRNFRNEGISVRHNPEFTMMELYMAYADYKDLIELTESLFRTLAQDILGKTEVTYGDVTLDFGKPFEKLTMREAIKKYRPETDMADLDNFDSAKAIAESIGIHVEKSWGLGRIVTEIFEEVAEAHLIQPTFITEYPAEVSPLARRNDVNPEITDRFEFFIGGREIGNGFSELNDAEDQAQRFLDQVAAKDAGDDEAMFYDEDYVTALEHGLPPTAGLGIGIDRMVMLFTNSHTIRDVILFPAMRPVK

GenX (PoxA, YjeA) = target: T2, GenX (PoxA, YjeA) (Escherichia coli, UniProt P0A8N7); test: inhibition of lysine activation, ATP-[…]PPi exchange; type: biochemical
T2 sequence (P0A8N7 1-325): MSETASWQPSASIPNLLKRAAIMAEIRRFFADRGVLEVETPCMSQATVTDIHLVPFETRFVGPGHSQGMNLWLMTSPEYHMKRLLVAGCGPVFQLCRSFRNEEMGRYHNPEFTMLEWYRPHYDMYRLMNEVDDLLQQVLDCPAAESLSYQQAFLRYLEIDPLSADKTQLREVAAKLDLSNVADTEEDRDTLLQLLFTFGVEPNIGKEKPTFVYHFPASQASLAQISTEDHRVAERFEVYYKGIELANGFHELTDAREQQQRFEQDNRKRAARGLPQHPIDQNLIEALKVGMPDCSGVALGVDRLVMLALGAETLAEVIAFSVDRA

| Ki (GenX (PoxA, YjeA)) | SMILES | amino acid activation (E. coli LysRS) |
| --- | --- | --- |
| – | NCCSC[C@H](N)C(=O)O [compound 1, S-(2-aminoethyl)-L-cysteine] | E. coli LysRS readily activates S-(2-aminoethyl)-L-cysteine (AEC), ornithine |
| 150 µM | NCCCC[C@H](N)C(=O)NO [compound 2, L-lysine hydroxamate] | – |
| 280 µM | NCCCC[C@H](N)C(N)=O [compound 3, lysinamide] | – |
